Test results published in patent US5124158A, “Transdermal antisecretory agents for gastrointestinal disease” (The Upjohn Company, priority 1990, dated 1992).

Legend:
(H^+ -K^+) ATPase [1] = test: Transdermal application to backs of rats, (H+-K+) ATPase activity in fundic gastric mucosal microsomes (K+-dependent ATP-hydrolysis); format: in vivo, rat
Protocol: (§1) The animals were allowed to rest for varying amounts of time and then the inhibition of (H^+ -K^+) ATPase, the enzyme responsible for gastric acid secretion, was measured.
(§2) For each of the following examples the drug dilutions were prepared in DMSO to a final concentration of 150 mg/ml. The drug was made fresh prior to each application.
(§3) The inhibition of (H^+ -K^+) ATPase activity was determined as described by Im, W. B.; Blalkeman, D. P., "Inhibitiion of Gastric pH^+ -K^+) ATPase by Unsaturated Long Chain Fatty Acids" Biochem. et Biophy. […] For the rat models, fundic gastric mucosal microsomes were prepared and (H^+ -K^+) ATPase activity in the microsomes was estimated by measuring K^+ -dependent ATP-hydrolysis.
(§4) Male, Upjohn Sprague Dawley rats were anesthetized with sodium pentobarbital and their dorsal hair removed with the depilatory NAIR. Care was taken to prevent abrasions which might result from hair removal. The animals were returned to their cages and allowed to recover for twenty-four hours. The rats were then fasted overnight in metal restraining tubes without water prior to treatment. 2-(4-ethylthio-3-methylpyridin-2-yl methyl)sulfinyl-benzimidazole at 0 or 100 mg/kg was applied to the backs of the rats and spread with an Eppendorf pipette tip. The same volume of DMSO alone was applied after 2 hrs to all animals. The rats were evaluated 5 or 30 hours after the initial dose for determination of (H^+ -K^+) ATPase activity.
as §4, with “Omeprazole” for “2-(4-ethylthio-3-methylpyridin-2-yl methyl)sulfinyl-benzimidazole”
(§5) Additional volumes (100 μl) of DMSO were spread over the treatment area one time (after two hours) or four times (after one, two, three and four hours). The animals were evaluated 5 hours after the initial dose for determination of (H^+ -K^+) ATPase activity.
(§6) Additional volumes (100 μl) of DMSO were spread over the treatment area after 2, 5, and 7 hours. The animals were evaluated 24 hours after the initial dose for determination of (H^+ -K^+) ATPase activity.

[2] = Signs of irritation after transdermal application; format: in vivo; conditions: rabbit ears, transdermal 100 mg/kg in DMSO
Protocol: (§7) Male, New Zealand White rabbits were fasted overnight without water in their cages prior to treatment. The same compound as used in Example 1 was applied at 0 or 100 mg/kg in divided doses (1/2 to each ear) to naive rabbit ears. The rabbits received an additional application of DMSO to the treatment area after 1, 3, 5, 7, 24 and 25 hrs. The rabbits were evaluated 30 hrs after the initial dose for determination of (H^+ -K^+) ATPase activity.

[3] = Transdermal application to backs of rats, (H+-K+) ATPase activity in fundic gastric mucosal microsomes (K+-dependent ATP-hydrolysis); format: in vivo, rat; conditions: rat, in vivo, topical or ocular, transdermal, lowest dose 25 mg/kg, read-out: fraction of the lowest dose absorbed
Protocol: as §1, §2, §3, §4
as §4, with “Omeprazole” for “2-(4-ethylthio-3-methylpyridin-2-yl methyl)sulfinyl-benzimidazole”
as §5, §6

(H^+ -K^+) ATPase [4] = test: Transdermal application to rabbit ears, (H+-K+) ATPase activity in fundic mucosa; format: in vivo; conditions: rabbits, transdermal 100 mg/kg divided to both ears, DMSO after 1, 3, 5, 7, 24 and 25 hrs, evaluated 30 hrs after dose
Protocol: as §1, §2
The inhibition of (H^+ -K^+) ATPase activity was determined as described by Im, W. B.; Blalkeman, D. P., "Inhibitiion of Gastric pH^+ -K^+) ATPase by Unsaturated Long Chain Fatty Acids" Biochem. et Biophy. Acta 692:355-60 (1982). For the rat models, fundic gastric mucosal microsomes were prepared and (H^+ -K^+) ATPase activity in the microsomes was estimated by measuring K^+ -dependent ATP-hydrolysis.
For the rabbit models, mucosa from the fundic region was removed by blunt dissection and minced with scissors. 2.5 g of the minced tissue was placed in 25 ml of buffer containing 250 mM sucrose, 2 mM MgCl2, 1 mM EGTA, and 2 mM Hepes/Tris, pH 7.4. The tissues were then prepared as described for the rat gastric mucosa.
as §7, with “The rabbits received an additional application of DMSO to the treatment area after 1, 3, 5, 7, 24 and 25 hrs.” left out

SMILES | reduction of (H^+ -K^+) ATPase activity as compared to the control ((H^+ -K^+) ATPase [1]; transdermal 100 mg/kg in DMSO, DMSO alone after 2 hrs, after 5 hours) [%] | reduction of (H^+ -K^+) ATPase activity as compared to the control ((H^+ -K^+) ATPase [1]; transdermal 100 mg/kg in DMSO, DMSO alone after 2 hrs, after 30 hours) [%] | signs of irritation [2] | Fa [3] [%] | reduction of (H^+ -K^+) ATPase activity from control ((H^+ -K^+) ATPase [1]; transdermal 100 mg/kg in DMSO, DMSO alone after 2 hrs, evaluated 5 or 30 hours after dose (activity did not change with time)) | additional reduction of (H^+ -K^+) ATPase activity by additional applications of DMSO ((H^+ -K^+) ATPase [1]; transdermal 100 mg/kg, four wipes of DMSO (1, 2, 3, 4 hours) versus one wipe, 5 hours) [%] | reduction of (H^+ -K^+) ATPase activity ((H^+ -K^+) ATPase [1]; transdermal 100 mg/kg, four wipes of DMSO (1, 2, 3, 4 hours), 5 hours) [%] | reduction of (H^+ -K^+) ATPase activity from control ((H^+ -K^+) ATPase [1]; transdermal 100 mg/kg, one DMSO wipe after two hours, evaluated 5 hours after dose (Example 3)) [%] | reduction of (H^+ -K^+) ATPase activity ((H^+ -K^+) ATPase [1]; transdermal 200 mg/kg, one wipe of DMSO after two hours, 5 hours) [%] | reduction in (H^+ -K^+) ATPase from the control ((H^+ -K^+) ATPase [1]; transdermal 25, 50 or 100 mg/kg (maximum even at the lower dose), DMSO after 2, 5 and 7 hours, evaluated 24 hours after dose) [%] | reduction of (H^+ -K^+) ATPase activity from control ((H^+ -K^+) ATPase [4]) [%]
COc1ccc2[nH]c([S+]([O-])Cc3ncc(C)c(OC)c3C)nc2c1 (centres unmarked) [omeprazole, reference compound] | 35 | 27 |  |  |  |  |  |  |  |  | 
CCSc1ccnc(C[S+]([O-])c2nc3ccccc3[nH]2)c1C (centres unmarked) [2-(4-ethylthio-3-methylpyridin-2-ylmethyl)sulfinyl-benzimidazole] |  |  | no signs of irritation were observed | ≥ 4 | 60-65% | 16 | 81 | 65 | 72 | ~50 | 87
